We go through 3 compounds from patent EP3219306B1, “COMPOSITION COMPRISING CITICOLINE AND HOMOTAURINE FOR PREVENTING AND TREATING NEUODEGENERATIVE DISEASES AND COGNITIVE DISORDERS” (NEURAXPHARM ITALY S.P.A., priority 2016, dated 2017).

A short description of data set [1]: Bioavailability of [methyl-14C]-labelled citicoline by oral and venous route, radioactivity in plasma. The data set is classed as in vivo, experimental animal models. The text has this:
In experimental animal models, the applicant compared the bioavailability by oral and venous route of citicoline, labeling it with a radioactive label -[methyl-14C].

Another data set concerns retinal cells. The settings on record: for cytotoxicity (cell death) on the cell cultures: 1, 10, 100 µM for 24 h; for toxicity to retinal cells (MTT): 1, 10 or 100 µM. How it is done: (§1) The MTT assay was used to measure the viability of both neuronal and retina cells. The cells were prepared in a 96-well plate in DMEM-F12 with 7% FBS. After cultured in DMEM-F12 without serum for 12 h, Ab25-35 ([…]) or glucose oxidase (GOX) alone or in combination with homotaurine (Hom), citicoline (CITC) or Hom + CITC were added to the medium. Twenty-four hours later, the cells were incubated with […] MTT (Roche, 0.5 mg/ml) at 37 °C for 4 hours, then the crystals were dissolved in […] DMSO. Absorbance at 570 nm was measured with a spectrophotometer (TECAN Infinite M200, Switzerland).

Another data set is described as follows: Water solubility. The data set is classed as physicochemical.
The conditions of data set [2]: 50 mg per day, individuals with an average decline of cognitive functions; cited from earlier work.
Data set [3] has as its system human retina pigment epithelium (ARPE-19). The experiment in a line: MTT assay, cell viability of retina cells against cytotoxicity induced by glucose oxidase (GOX). The conditions noted are these: cytotoxicity induced by GOX 50 mU/ml; 1 µM; n = 5. The data set is classed as cell-based. How it is done: as §1
Another data set has as its target Aβ40 (Homo sapiens, UniProt P05067). The settings on record: 8-week treatment, 30 or 100 mg/kg/day; cited from earlier work.
The next data set deals with Aβ42 (Homo sapiens, UniProt P05067). The conditions noted are these: 8-week treatment, 30 or 100 mg/kg/day; cited from earlier work.
Data set [4] can be described thus: Randomized double-blind, placebo-controlled trial in subjects with medium to moderate Alzheimer's disease. Format: in vivo, human. The conditions noted are these: 50, 100, 150 mg homotaurine in combination with 500, 750 and 1000 mg sodium citicoline. How it is done:
Studies to evaluate the pharmacokinetic-pharmacodynamic effect of compositions for use of the invention have provided positive indications about the activity. In particular, in a randomized double-blind, placebo-controlled trial in which 58 subjects with from medium to moderate Alzheimer's disease were administered 50, 100, 150 mg of homotaurine in combination with 500, 750 and 1000 mg of sodium citicoline.

Molecules are shown by their SMILES. Entries after “also recorded” stand apart in the source; their conditions may differ.

Sequence of Aβ42 (P05067 672-713 limits assumed, species assumed): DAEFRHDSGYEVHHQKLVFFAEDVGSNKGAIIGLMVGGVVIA
Sequence of Aβ40 (P05067 672-711 limits assumed, species assumed): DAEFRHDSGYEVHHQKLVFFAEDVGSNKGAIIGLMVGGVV

In the case of `C[N+](C)(C)CCOP(=O)(O)OP(=O)([O-])OC[C@H]1O[C@@H](n2ccc(N)nc2=O)[C@H](O)[C@@H]1O` [citicoline, 2-[{[5-(4-amino-2-oxopyrimidin-1-yl)-3,4-dihydroxyoxolan-2-yl]methoxy-hydroxyphosphoryl}oxy-hydroxyphosphoryl]oxyethyl-thrimethylazanium], the bioavailability result in data set [1] (oral administration) is on record as “greater than 90%”. Further, in data set [1] (oral vs venous route, [methyl-14C] label), the “equivalence of the two alternative administration routes (percentage of radioactivity in plasma over time)” value is given as “about 90%”. Moreover, in the data set with retinal cells, the “cytotoxicity (cell death) on the cell cultures” value is on record as “None of the concentrations induced cell death; also recorded: substantial absence of cytotoxicity” and the “toxicity to retinal cells (MTT)” value was “no evidence of selective toxicity”. Further, the water solubility entry in “Water solubility” is reported as “high”.

As to `NCCCS(=O)(=O)O` [homotaurine, 3-amino-1-propanesulfonic acid], in data set [2], the “effect on atrophy of the hippocampus” value is listed as “positive effect” and the “effect on episodic memory loss” value is reported as “positive effect”. Moreover, the “cell viability (MTT)” value in data set [3] is given as “able to improve the cell viability”. Besides, in the data set with retinal cells, the “cytotoxicity (cell death) on the cell cultures” value is “None of the concentrations induced cell death; also recorded: substantial absence of cytotoxicity” and the “toxicity to retinal cells (MTT)” value is “no evidence of selective toxicity”. Besides, the “plasma level of Aβ40” value at Aβ40 is “able to reduce”. Moreover, the “plasma level of Aβ42” value on Aβ42 is reported as “able to reduce”. Also, in data set [4], the “crossing of the blood-brain barrier” value was “crossed the blood-brain barrier”.

Regarding `C[N+](C)(C)CCOP(=O)([O-])OP(=O)([O-])OC[C@H]1O[C@@H](n2ccc(N)nc2=O)[C@H](O)[C@@H]1O.[Na+]` [sodium citicoline], in data set [4], the “crossing of the blood-brain barrier” value was “crossed the blood-brain barrier”.
